Test results as given in paper PMC6770091, “P-Glycoprotein 1 Affects Chemoactivities of Resveratrol against Human Colorectal Cancer Cells” (Nutrients, 2019).

Assays:
HCT116 cells [1] = assay: Cytotoxicity assay, crystal violet staining; assay type: cell-based; conditions: Homo sapiens, HCT-116, HCT116, 72 h, read-out: IC50 (concentration inhibiting 50% of the tumor proliferation)
Description: (§1) Cell lines were seeded into 96-well plates. After 24 h of culture, the cells were treated with increasing concentrations of resveratrol for 72 h. All control and treated cells received the same volume of ethanol (0.1%). After time of treatment, cells were harvested and the toxicities were evaluated by crystal violet staining. Briefly, after treatments cells were washed with PBS 1X, stained for 5 min with a crystal violet solution (0.5% (w/v) crystal violet in 25% (v/v) methanol), and then gently rinsed with water. Absorbances were read at 540 nm with a Biochrom Asys UVM 340 spectrophotometer, after the extraction of the dye by 0.1 M sodium citrate in 50% ethanol. The inhibitory concentrations 50% (IC50) were assessed by crystal violet staining after 72 h of treatment. IC50 values were calculated by a four-parameter non-linear regression with GraphPad Prismversion 6 software (San Diego, California, CA, USA). In some experiments, after 24 h of seeding, cells were treated with resveratrol (30 µM) for 48 h before crystal violet staining. All results were expressed as percentages of control values (vehicle alone).

HT29 cells [2] = assay: Cytotoxicity assay, crystal violet staining; assay type: cell-based; conditions: Homo sapiens, HT-29, HT29, 72 h, read-out: IC50 (concentration inhibiting 50% of the tumor proliferation)
Description: as §1

SW480 cells [3] = assay: Cytotoxicity assay, crystal violet staining; assay type: cell-based; conditions: Homo sapiens, SW480, 72 h, read-out: IC50 (concentration inhibiting 50% of the tumor proliferation)
Description: as §1

SW620 cells [4] = assay: Cytotoxicity assay, crystal violet staining; assay type: cell-based; conditions: Homo sapiens, SW-620, SW620, 72 h, read-out: IC50 (concentration inhibiting 50% of the tumor proliferation)
Description: as §1

HCT116 cells [5] = assay: [3H]-resveratrol efflux measurement; assay type: in vitro ADME, human; conditions: after 10 min uptake of 30 µM [3H]-resveratrol
Description: (§2) Resveratrol efflux was examined by incubating confluent cells in 6-well plates over 10 min with 30 µM tritiated resveratrol in complete medium at 37 °C. […] At the end of the incubation period, the labeled medium was removed and the cells were washed two times with PBS. Fresh medium (37 °C or 4 °C) was then quickly added to allow the cells to efflux tritiated resveratrol from 1 to 360 min. At the end of each time point, the cells were washed and lysed in NaOH 0.1 M, Na2CO3 2%, SDS 0.1%. The cell homogenates were transferred into flasks and cell-associated radioactivity was counted in a liquid scintillation analyzer. We evaluated 60 min area under curves (AUC) by integrating exponential regression curves of [^3H]-resveratrol time course accumulation between 0 and 60 min.

HT29 cells [6] = assay: [3H]-resveratrol efflux measurement; assay type: in vitro ADME, human; conditions: after 10 min uptake of 30 µM [3H]-resveratrol
Description: as §2

SW620 cells [7] = assay: [3H]-resveratrol efflux measurement; assay type: in vitro ADME, human; conditions: after 10 min uptake of 30 µM [3H]-resveratrol
Description: as §2

SW480 cells [8] = assay: [3H]-resveratrol efflux measurement; assay type: in vitro ADME, human; conditions: for Vi = % of Resveratrol Efflux . min^−1: after 10 min uptake of 30 µM [3H]-resveratrol
Description: as §2, with “analyzer.” for “analyzer. We evaluated 60 min area under curves (AUC) by integrating exponential regression curves of [^3H]-resveratrol time course accumulation between 0 and 60 min.”

BCRP = conditions: human, not told, 30 µM
Description: as §2

MDR1 = conditions: mouse, not told, 30 µM
Description: as §2

MRP2 = conditions: human, 30 µM
Description: as §2

MRP1 = molecular target: T1, MRP1 (Homo sapiens, UniProt P33527); assay: [3H]-resveratrol efflux, BHK 21 vs BHK21-MRP1 overexpressing clone; assay type: in vitro ADME; conditions: BHK 21/MRP1 vs control BHK 21, 30 µM [3H]-resveratrol, 37°C
T1 construct: expressed in transfected cells; host or cells: BHK 21 (baby hamster kidney) stably transfected clone BHK21-MRP1, provided by Dr. Attilio Di Pietro
Description: as §2

[9] = test system: colon carcinoma cells (all cell lines); assay: [3H]-resveratrol efflux in presence of other ABC protein inhibitors; assay type: cell-based, human

T1 sequence (P33527 whole entry): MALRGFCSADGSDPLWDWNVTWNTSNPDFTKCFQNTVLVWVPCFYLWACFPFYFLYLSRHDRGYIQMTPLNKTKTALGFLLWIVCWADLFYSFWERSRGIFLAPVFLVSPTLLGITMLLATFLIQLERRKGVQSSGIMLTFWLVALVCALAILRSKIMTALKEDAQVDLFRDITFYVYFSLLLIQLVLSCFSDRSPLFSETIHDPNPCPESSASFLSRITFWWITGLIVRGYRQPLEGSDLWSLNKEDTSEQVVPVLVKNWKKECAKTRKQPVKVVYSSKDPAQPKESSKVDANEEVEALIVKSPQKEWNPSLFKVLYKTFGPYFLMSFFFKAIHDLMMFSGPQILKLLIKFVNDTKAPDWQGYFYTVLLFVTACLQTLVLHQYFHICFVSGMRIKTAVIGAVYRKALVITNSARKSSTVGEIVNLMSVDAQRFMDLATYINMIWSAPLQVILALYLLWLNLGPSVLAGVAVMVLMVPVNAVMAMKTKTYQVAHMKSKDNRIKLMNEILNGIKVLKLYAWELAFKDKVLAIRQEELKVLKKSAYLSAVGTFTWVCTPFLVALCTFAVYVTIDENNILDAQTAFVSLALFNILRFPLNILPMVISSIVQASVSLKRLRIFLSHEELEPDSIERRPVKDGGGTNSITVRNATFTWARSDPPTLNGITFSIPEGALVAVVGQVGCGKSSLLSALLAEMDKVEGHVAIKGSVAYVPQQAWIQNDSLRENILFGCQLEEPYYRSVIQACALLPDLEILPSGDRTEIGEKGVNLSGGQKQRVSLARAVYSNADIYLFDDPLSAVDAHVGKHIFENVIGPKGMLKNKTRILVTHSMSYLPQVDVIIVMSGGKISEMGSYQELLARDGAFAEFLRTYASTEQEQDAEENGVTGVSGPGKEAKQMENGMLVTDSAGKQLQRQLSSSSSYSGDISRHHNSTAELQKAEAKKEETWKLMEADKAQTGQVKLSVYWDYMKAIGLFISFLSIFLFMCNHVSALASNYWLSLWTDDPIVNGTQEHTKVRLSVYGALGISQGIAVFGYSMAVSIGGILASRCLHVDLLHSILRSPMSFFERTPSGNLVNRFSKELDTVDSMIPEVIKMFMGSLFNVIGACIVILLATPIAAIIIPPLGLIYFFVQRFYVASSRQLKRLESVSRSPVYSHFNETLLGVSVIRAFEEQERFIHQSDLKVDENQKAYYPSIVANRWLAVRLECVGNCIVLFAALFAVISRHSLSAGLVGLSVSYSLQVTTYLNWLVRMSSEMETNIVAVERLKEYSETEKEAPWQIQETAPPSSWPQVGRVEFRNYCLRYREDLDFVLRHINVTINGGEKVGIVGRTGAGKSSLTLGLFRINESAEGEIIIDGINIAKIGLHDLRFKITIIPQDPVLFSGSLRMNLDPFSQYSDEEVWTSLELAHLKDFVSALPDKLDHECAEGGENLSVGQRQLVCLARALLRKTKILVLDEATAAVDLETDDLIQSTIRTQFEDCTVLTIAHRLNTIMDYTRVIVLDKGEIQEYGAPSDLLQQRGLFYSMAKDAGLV

Oc1ccc(/C=C/c2cc(O)cc(O)c2)cc1 [RSV, trans 3,5,4′ trihydroxystilbene]
IC50 (HCT116 cells [1]): ~25 µM
IC50 (HT29 cells [2]): ~40 µM
IC50 (SW480 cells [3]): ~70 µM
IC50 (SW620 cells [4]): ~20 µM
Vi = % of Resveratrol Efflux . min^−1 (HCT116 cells [5]; HCT116, 4°C): 2.6 % of Resveratrol Efflux . min^−1
Vi = % of Resveratrol Efflux . min^−1 (HCT116 cells [5]; HCT116, 37 °C): 6.4 % of Resveratrol Efflux . min^−1
Vi = % of Resveratrol Efflux . min^−1 (HT29 cells [6]; HT29, 4°C): 4.3 % of Resveratrol Efflux . min^−1
Vi = % of Resveratrol Efflux . min^−1 (HT29 cells [6]; HT29, 37 °C): 5.9 % of Resveratrol Efflux . min^−1
Vi = % of Resveratrol Efflux . min^−1 (SW620 cells [7]; SW620, 4°C): 2.8 % of Resveratrol Efflux . min^−1
Vi = % of Resveratrol Efflux . min^−1 (SW620 cells [7]; SW620, 37 °C): 5.7 % of Resveratrol Efflux . min^−1
Vi = % of Resveratrol Efflux . min^−1 (SW480 cells [8]; SW480, 4°C): 4.7 % of Resveratrol Efflux . min^−1
Vi = % of Resveratrol Efflux . min^−1 (SW480 cells [8]; SW480, 37 °C): 6.3 % of Resveratrol Efflux . min^−1
inhibition of RSV accumulation (AUC 0-60 min of intracellular RSV level) by transporter overexpression (BCRP): 1.7 fold
inhibition of RSV accumulation (AUC 0-60 min of intracellular RSV level) by transporter overexpression (MDR1): 1.7 fold
AUC (0-60 min, intracellular RSV level) diminished between control cells and MRP2 overexpressing one (MRP2): 1.2 fold
effect of MRP1 overexpression on intracellular RSV level (MRP1): early slight effect

COc1ccc2c(c1)c(CC(=O)O)c(C)n2C(=O)c1ccc(Cl)cc1 [indomethacin, reference compound]
inhibition of the release of RSV (SW480 cells [8]; SW480, inhibitor 20 µM pretreatment 10 min, 5 min efflux at 37 °C): 1.8 fold

[O]=[V]([O-])([O-])[O-] [orthovanadate]
effect on resveratrol retention [9]: enhance resveratrol retention

C[C@@H]1O[C@@H](O[C@H]2C[C@@H](O)[C@]3(CO)[C@H]4[C@H](O)C[C@]5(C)[C@@H](C6=CC(=O)OC6)CC[C@]5(O)[C@@H]4CC[C@]3(O)C2)[C@H](O)[C@H](O)[C@H]1O [ouabain]
effect on resveratrol retention [9]: enhance resveratrol retention

CCCN(CCC)S(=O)(=O)c1ccc(C(=O)O)cc1 [probenicid]
effect on resveratrol retention [9]: enhance resveratrol retention

O=c1c(O)c(-c2ccc(O)c(O)c2)oc2cc(O)cc(O)c12 [quercetin]
effect on resveratrol retention [9]: enhance resveratrol retention

C=C[C@H]1C[N@@]2CC[C@H]1C[C@H]2[C@H](O)c1ccnc2ccc(OC)cc12 [quinine]
effect on resveratrol retention [9]: enhance resveratrol retention
